Article PMC3435245, “D-Alanylation of Lipoteichoic Acids Confers Resistance to Cationic Peptides in Group B Streptococcus by Increasing the Cell Wall Density” (PLoS Pathogens, 2012)
≈ marks a conversion by molar mass, not a printed value. Marks after values point to notes of the source that are not given here. Where a SMILES comes first, the peptide text is derived from it. Bridges are numbered along the chain shown (N, C = ends). [ ]: non-standard residue; d: D form. The star is where a group is joined. Heptanoyl(6-Me) = CC(C)CCCCC(=O)*; X1 = CC[C@H](C)CCCCC(=O)*; Dab = NCC[C@H](N)C(=O)O

What was measured:
GBS Δlgt Δlsp mutant = experiment: MIC90 by dilution method, GBS Δlgt Δlsp; assay type: cell-based, Streptococcus agalactiae; settings: Todd-Hewitt broth with 100 mM HEPES, 2×10^6 CFU, 96-well polypropylene microplate, overnight 37°C, OD600 nm; average of triplicate measurements
Experimental: (§1) The MICs of each antimicrobial peptide were tested in Todd-Hewitt broth (THB) buffered with 100 mM HEPES in 96-well polypropylene microplates (Costar, Cambridge, MA) by a dilution method. Bacteria (2×10^6 CFU) were added in triplicates to wells containing increasing concentrations of the antimicrobial peptides. Plates were incubated at 37°C with shaking overnight and then read (OD600 nm) using microplate reader (Labsystems Multiskanat) for bacterial growth. The MICs90 was considered to be the peptide concentration that inhibited 90% growth.

GBS ΔsrtA mutant = experiment: MIC90 by dilution method, GBS ΔsrtA; assay type: cell-based, Streptococcus agalactiae; settings: Todd-Hewitt broth with 100 mM HEPES, 2×10^6 CFU, 96-well polypropylene microplate, overnight 37°C, OD600 nm; average of triplicate measurements
Experimental: as §1

GBS ΔmprF mutant = experiment: MIC90 by dilution method, GBS ΔmprF; assay type: cell-based, Streptococcus agalactiae; settings: Todd-Hewitt broth with 100 mM HEPES, 2×10^6 CFU, 96-well polypropylene microplate, overnight 37°C, OD600 nm; average of triplicate measurements
Experimental: as §1

GBS ΔdltA mutant = experiment: MIC90 by dilution method, GBS ΔdltA; assay type: cell-based, Streptococcus agalactiae; settings: for MIC90, ΔdltA: Todd-Hewitt broth with 100 mM HEPES, 2×10^6 CFU, 96-well polypropylene microplate, overnight 37°C, OD600 nm, average of triplicate measurements; for more active against the dltA mutant compared to the WT (fold dilution): from MICs of Table 2, statement for all natural peptides; for fold more active on the dltA mutant compared to the WT: from MICs, WT versus dltA mutant
Experimental: as §1

GBS ΔcpsD mutant = experiment: MIC90 by dilution method, GBS ΔcpsD; assay type: cell-based, Streptococcus agalactiae; settings: Todd-Hewitt broth with 100 mM HEPES, 2×10^6 CFU, 96-well polypropylene microplate, overnight 37°C, OD600 nm; average of triplicate measurements
Experimental: as §1

GBS NEM316 WT strain = assay type: cell-based, Streptococcus agalactiae; settings: Todd-Hewitt broth with 100 mM HEPES, 2×10^6 CFU, 96-well polypropylene microplate, overnight 37°C, OD600 nm; average of triplicate measurements
Experimental: as §1

[1] = RP-HPLC hydrophobicity (% AcN at elution); assay type: physicochemical; settings: chromatographic, C4 reverse analytical column; eluted in 40 min, linear gradient of acetonitrile 30 to 70% v/v in water containing TFA (0.05% v/v)
Experimental: The procedure conducted as described previously. Briefly, peptides were synthesized using the Fmoc solid phase method on Rink amide resin ([…]). For fluorescent labeling of the N-terminus of the peptides, resin-bound peptides were treated with NBD or rhodamine dissolved in dimethyl formamide (DMF), washed thoroughly with DMF and then with methylene chloride, dried and then cleaved. […] The peptides were subjected to amino acid and mass spectrometry analysis to confirm their composition.

GBS dltA mutant = experiment: Rhodamine-labeled peptide fluorescence self-quenching on addition of bacteria (aggregation), dltA; assay type: cell-based, Streptococcus agalactiae; settings: rhodamine-labeled peptide 1 µM
From the text: (§2) We further investigated whether the increased cell wall density resulting from D-alanylation of LTAs can reduce CAMPs penetration through the cell wall barrier by following the interaction of fluorescently labeled CAMPs with intact bacteria. […] Here, we investigated if the peptides display different aggregation states when bound to the WT or the dltA mutant strains. This was done by monitoring changes in the signal intensity of rhodamine-labeled peptides following their interaction with the bacterial surface under under high (160 mM NaCl) and low (16 mM NaCl) ionic strength conditions. Addition of bacteria to the rhodamine-labeled peptides induced self-quenching of fluorescence for all tested peptides. However, no significant difference in aggregation was found in the WT compared to the dltA strain (Figure 7A and Table 3).
Real time tracking of the changes in the fluorescent signal of rhodamine or NBD labeled peptides was performed using an SLM-Aminco Bowman series 2-luminescence spectrophotometer (SLM-Aminco, Rochester, NY, USA) at room temperature. Typical spectral bandwidths were 5 nm for excitation and 5 nm for emission. […] The peptides were placed in a 5×5-mm quartz cuvette with constant magnetic stirring. Following signal stabilization, bacterial suspension (10 µl, OD600 nm adjusted to 4) or liposomes suspension (100 µM lipid final concentration) composed of cardiolipid/PG (1∶1 M/M) was added to the cuvette and the change in signal was monitored over time.

GBS WT strain = experiment: Rhodamine-labeled peptide fluorescence self-quenching on addition of bacteria (aggregation), WT; assay type: cell-based, Streptococcus agalactiae; settings: rhodamine-labeled peptide 1 µM, self-quenching (aggregation) relative to basal signal of the peptide after addition of bacteria, room temperature; means of triplicate measurements from two independent experiments
From the text: as §2
Real time tracking of the changes in the fluorescent signal of rhodamine or NBD labeled peptides was performed using an SLM-Aminco Bowman series 2-luminescence spectrophotometer (SLM-Aminco, Rochester, NY, USA) at room temperature. Typical spectral bandwidths were 5 nm for excitation and 5 nm for emission. […] Following signal stabilization, bacterial suspension (10 µl, OD600 nm adjusted to 4) or liposomes suspension (100 µM lipid final concentration) composed of cardiolipid/PG (1∶1 M/M) was added to the cuvette and the change in signal was monitored over time.

[2] = self-quenching (aggregation) relative to basal signal of the peptide after addition of bacteria, room temperature, means of triplicate measurements from two independent experiments

| Molecule | MIC90, Δlgt Δlsp (GBS Δlgt Δlsp mutant) | MIC90, ΔsrtA (GBS ΔsrtA mutant) | MIC90, ΔmprF (GBS ΔmprF mutant) | MIC90, ΔdltA (GBS ΔdltA mutant) | more active against the dltA mutant compared to the WT (fold dilution) (GBS ΔdltA mutant) | fold more active on the dltA mutant compared to the WT (GBS ΔdltA mutant) | MIC90, ΔcpsD (GBS ΔcpsD mutant) | MIC90, WT (GBS NEM316 WT strain) | Hydrophobicity (% AcN) [1] | Signal change [%], NaCl (16 mM), dltA (GBS dltA mutant; [2]) | Signal change [%], NaCl (160 mM), dltA (GBS dltA mutant; [2]) | Difference in signal change [%], NaCl (160 mM), Δ(dltA-WT) (GBS dltA mutant; difference in the signal change between dltA strain to the WT strain) | Signal change [%], NaCl (16 mM), WT (GBS WT strain) | Signal change [%], NaCl (160 mM), WT (GBS WT strain) |
| --- | --- | --- | --- | --- | --- | --- | --- | --- | --- | --- | --- | --- | --- | --- |
| CC(C)CCCCC(=O)N[C@@H](CCN)C(=O)N[C@H](C(=O)N[C@@H](CCN)C(=O)N[C@H]1CCNC(=O)[C@H]([C@@H](C)O)NC(=O)[C@H](CCN)NC(=O)[C@H](CCN)NC(=O)[C@H](CC(C)C)NC(=O)[C@@H](CC(C)C)NC(=O)[C@H](CCN)NC1=O)[C@@H](C)O ({Heptanoyl(6-Me)}-[Dab]T[Dab][Dab][Dab][dL]L[Dab][Dab]T; lactam 4-C; N-terminus assumed) | >221.6 µM | >221.6 µM | >221.6 µM | 13.9 µM (≈ 16.1 µg/mL) | > 2 fold dilution | 8 fold | >221.6 µM | >221.6 µM | – | – | – | – | – | – |
| CC(C)C[C@H](NC(=O)[C@H](CC(C)C)NC(=O)[C@H](CCCCN)NC(=O)[C@H](CC(C)C)NC(=O)[C@H](CC(C)C)NC(=O)[C@H](CC(C)C)NC(=O)[C@H](CCCCN)NC(=O)[C@H](CC(C)C)NC(=O)[C@H](CC(C)C)NC(=O)[C@H](CCCCN)NC(=O)[C@@H](N)CCCCN)C(=O)N[C@@H](CCCCN)C(N)=O [K5L7] (H-KKLLKLLLKLLK-NH2) | – | – | – | 25 µM (≈ 36.3 µg/mL) | – | – | – | 25 µM (≈ 36.3 µg/mL) | – | – | – | – | – | – |
| CC(C)C[C@H](NC(=O)[C@H](CC(C)C)NC(=O)[C@H](CCCCN)NC(=O)[C@H](CC(C)C)NC(=O)[C@H](CC(C)C)NC(=O)[C@H](CCCCN)NC(=O)[C@H](CCCCN)NC(=O)[C@H](CC(C)C)NC(=O)[C@H](CC(C)C)NC(=O)[C@H](CCCCN)NC(=O)[C@H](CCCCN)NC(=O)[C@H](CC(C)C)NC(=O)[C@H](CC(C)C)NC(=O)[C@H](CCCCN)NC(=O)[C@@H](N)CC(C)C)C(N)=O [K6L9] (H-LKLLKKLLKKLLKLL-NH2; N-terminus assumed) | 17.7 µM (≈ 31.9 µg/mL) | 35.5 µM (≈ 64.1 µg/mL) | 17.7 µM (≈ 31.9 µg/mL) | 17.7 µM (≈ 31.9 µg/mL) | – | – | 35.5 µM (≈ 64.1 µg/mL) | 35.5 µM (≈ 64.1 µg/mL) | 67.2 % AcN | – | – | – | – | – |
| CC(C)C[C@H](NC(=O)[C@H](CCCCN)NC(=O)[C@H](CCCCN)NC(=O)[C@H](CCCCN)NC(=O)[C@H](CC(C)C)NC(=O)[C@H](CCCCN)NC(=O)[C@H](CCCCN)NC(=O)[C@H](CC(C)C)NC(=O)[C@H](CC(C)C)NC(=O)[C@H](CCCCN)NC(=O)[C@H](CCCCN)NC(=O)[C@H](CC(C)C)NC(=O)[C@H](CCCCN)NC(=O)[C@H](CCCCN)NC(=O)[C@@H](N)CC(C)C)C(N)=O [K9L6] (H-LKKLKKLLKKLKKKL-NH2) | – | – | – | 25 µM (≈ 46.2 µg/mL) | – | – | – | 25 µM (≈ 46.2 µg/mL) | – | – | – | – | – | – |
| CC[C@H](C)[C@H](NC(=O)[C@H](CCCCN)NC(=O)[C@H](CCC(=O)O)NC(=O)[C@H](CCCCN)NC(=O)[C@H](CO)NC(=O)[C@H](CCCCN)NC(=O)[C@H](CCCNC(=N)N)NC(=O)[C@H](Cc1ccccc1)NC(=O)[C@H](Cc1ccccc1)NC(=O)[C@H](CC(=O)O)NC(=O)CNC(=O)[C@H](CC(C)C)NC(=O)[C@@H](N)CC(C)C)C(=O)NCC(=O)N[C@@H](CCCCN)C(=O)N[C@@H](CCC(=O)O)C(=O)N[C@@H](Cc1ccccc1)C(=O)N[C@@H](CCCCN)C(=O)N[C@@H](CCCNC(=N)N)C(=O)N[C@H](C(=O)N[C@H](C(=O)N[C@@H](CCC(N)=O)C(=O)N[C@@H](CCCNC(=N)N)C(=O)N[C@H](C(=O)N[C@@H](CCCCN)C(=O)N[C@@H](CC(=O)O)C(=O)N[C@@H](Cc1ccccc1)C(=O)N[C@@H](CC(C)C)C(=O)N[C@@H](CCCNC(=N)N)C(=O)N[C@@H](CC(N)=O)C(=O)N[C@@H](CC(C)C)C(=O)N[C@H](C(=O)N1CCC[C@H]1C(=O)N[C@@H](CCCNC(=N)N)C(=O)N[C@H](C(=O)N[C@@H](CCC(=O)O)C(=O)N[C@@H](CO)C(N)=O)[C@@H](C)O)C(C)C)[C@@H](C)CC)C(C)C)[C@@H](C)CC [LL-37] | >14.2 µM | >14.2 µM | >14.2 µM | 3.6 µM (≈ 16.2 µg/mL) | – | – | >14.2 µM | >14.2 µM | – | – | – | – | – | – |
| CC[C@H](C)[C@H](NC(=O)CN)C(=O)NCC(=O)N[C@@H](CCCCN)C(=O)N[C@@H](Cc1ccccc1)C(=O)N[C@@H](CC(C)C)C(=O)N[C@@H](Cc1c[nH]cn1)C(=O)N[C@@H](CO)C(=O)N[C@@H](C)C(=O)N[C@@H](CCCCN)C(=O)N[C@@H](CCCCN)C(=O)N[C@@H](Cc1ccccc1)C(=O)NCC(=O)N[C@@H](CCCCN)C(=O)N[C@@H](C)C(=O)N[C@@H](Cc1ccccc1)C(=O)N[C@H](C(=O)NCC(=O)N[C@@H](CCC(=O)O)C(=O)N[C@H](C(=O)N[C@@H](CCSC)C(=O)N[C@@H](CC(N)=O)C(=O)N[C@@H](CO)C(N)=O)[C@@H](C)CC)C(C)C [Magainin 2] (H-GIGKFLHSAKKFGKAFVGEIMNS-NH2) | >25.5 µM | >25.5 µM | >25.5 µM | 6.4 µM (≈ 15.8 µg/mL) | – | – | >25.5 µM | >25.5 µM | – | – | – | – | – | – |
| CC[C@H](C)CCCCC(=O)N[C@@H](CCN)C(=O)N[C@H](C(=O)N[C@@H](CCN)C(=O)N[C@H]1CCNC(=O)[C@H]([C@@H](C)O)NC(=O)[C@H](CCN)NC(=O)[C@H](CCN)NC(=O)[C@H](CC(C)C)NC(=O)[C@@H](Cc2ccccc2)NC(=O)[C@H](CCN)NC1=O)[C@@H](C)O [Polymyxin B] (X1-[Dab]T[Dab][Dab][Dab][dF]L[Dab][Dab]T; lactam 4-C (inferred); N-terminus assumed) | 92.4 µM (≈ 111 µg/mL) | 92.4 µM (≈ 111 µg/mL) | 92.4 µM (≈ 111 µg/mL) | 5.8 µM (≈ 6.98 µg/mL) | > 2 fold dilution | 8 fold | 92.4 µM (≈ 111 µg/mL) | 92.4 µM (≈ 111 µg/mL) | 53.2 % AcN | – | – | – | – | – |
| CH3(CH2)6CO-KKLLKLLLKLLK-NH2 [C8-K5L7, lipopeptide: K5L7 coupled to a short fatty acid] | – | – | – | 3 µM | – | – | – | 3 µM | 61.4 % AcN | – | – | – | – | – |
| Rho-LL37: rhodamine-labeled LL37 (N-terminus) | – | – | – | – | – | – | – | – | – | −58.6% | −32.7 ^c % | 6.1% | −60.8% | −26.6% |
